Experimental findings from US6365604B1, “Antipsychotic substituted piperidine derivatives” (Akzo Nobel NV, priority 1997, dated 2002) are described below.

Each structure is given as a SMILES string. Where two headings read alike, the source gives them in different places.

Data set [1] deals with climbing behaviour in mice, induced by apomorphine. In words: Apomorphine climbing test (ACT) in mice. It counts as in vivo. The note with it: test compound s.c., 0.75 mg/kg apomorphine HCl s.c. after 30 min, climbing scored at 10 and 20 min. The source says: The ability of dopamine receptor antagonists to inhibit the behavioural effects in rodents caused by dopamine agonists such as apomorphine is a well established criterion for predicting the antipsychotic efficacy of these drugs in man (see e.g. W. C. Bowman and M. J. Rand, Textbook of Pharmacology, 2nd ed., 1980, 15, 6). A particularly relevant test in this respect is the apomorphine climbing test (ACT) which measures the ability of a dopamine antagonist to inhibit the climbing behaviour in mice, induced by the subcutaneous or oral administration of apomorphine. Activity in this test, following systemic and oral administration, has been widely used as a predictor of antipsychotic activity i.e. anti-schizophrenic activity (see e.g. J. T Strupczewski et.al., J. Med. Chem., 1995, 38, 1119). Mice treated with apomorphine HCl tend to adopt a vertical position along the wall of a wire mesh cylinder, standing or climbing. This climbing behaviour is considered to be elicited by apomorphine-mediated stimulation of dopamine receptors. […] Test compounds which modulate this climbing behaviour may have antipsychotic activity. The various treatments are randomly distributed over the mice. Each experiment consists of 1+n treatment groups: 1 being a control group of 12 mice receiving apomorphine and vehicle subcutaneously or being a control group of 12 mice receiving apomorphine subcutaneously and vehicle orally; n being (usually 4) compound groups of 12 mice receiving apomorphine and test compound subcutaneously or being compound groups of 12 mice receiving apomorphine subcutaneously and test compound orally.
Experiments are performed in 3 runs of 20 mice each. […]
At 10 min after the treatment with apomorphine the climbing behaviour of each mouse is observed and expressed as a score, according to the following grade: […]
At 20 min after the treatment with apomorphine the climbing behaviour is observed and scored again. For each treatment group the mean score per mouse is determined. […] The final result per group is expressed as the percentage over the control group. […]

Data set [2] deals with catalepsy in rats. In words: Catalepsy in rats. The following applies: male Wistar rats; catalepsy assessed at 60 and 120 minutes after drug administration.
Protocol: (§1) Male Wistar rats (100-125 g, Olac UK) were used for catalepsy experiments. Catalepsy was assessed as described previously (Broekkamp et al, Naunyn-Schmiedeberg's Arch. Pharmacol. 338, 191 1988). Briefly, rats were tested in 6 different observation trials in which the animals were placed in abnormal postures and scored positively with one point for maintaining the imposed posture for 10 s. The imposed postures were: vertical clinging to a grid, upright standing with a high support for the front paws, extension of hindlegs, placement on back, placement of spatula in the mouth and rotation in a wire mesh cylinder.
(§2) Theoretically a maximum score of 6 can be reached. Catalepsy was assessed at 60 and 120 minutes after drug administration. The data were evaluated by 2 way ANOVAR followed by a Newman Kools post hoc test and ED50 values calculated (Table II).
Data set [3] relates to catalepsy in rats. The note with it: rat, in vivo.
Protocol: as §1, §2

`Cc1csc(C(=C2CCN(CCNC(=O)C3CC3)CC2)c2ccc(F)cc2)c1.O=C(O)C(=O)O` gave a melting point of 98 to 101 °C. The same measure, in the same setting: the result for `Cc1ccc(C(=O)NCCN2CCC(=C(c3ccc(F)cc3)c3cc(C)cs3)CC2)cc1.O=C(O)C(=O)O` reads 189 to 191 °C. In the case of `Cc1csc(C(=C2CCN(CCCC(=O)N3CCCCC3)CC2)c2cccc(F)c2)c1.Cl` [Compound 2n, 1-[4-[4-[(3-fluorophenyl)(4-methylthien-2-yl)methylene]piperidin-1-yl]-1-oxobutyl]-piperidine.hydrochloride], the “ACT(ED50)” value in data set [1] is 0.34 mg/kg. Besides, the “CATR (ED50)” value in data set [2] is over 17 mg/kg. Take `CCc1csc(C(=C2CCN(CCCC(=O)N3CCCC3)CC2)c2ccc(F)cc2)c1.Cl.Cl`: the melting point turned out to be 167.4 °C. `Cc1ccc(C(=O)N(C)CCN2CCC(=C(c3ccc(F)cc3)c3cc(C)cs3)CC2)cc1` gave a melting point of 114 to 116 °C. On to `Cc1csc(C(=C2CCN(CCCC(=O)N3CCCCC3)CC2)c2ccc(F)cc2)c1.O=C(O)C(=O)O` [Compound 2l, 1-[4-[4-[(4-fluorophenyl)(4-methylthien-2-yl)methylene]piperidin-1-yl]-1-oxobutyl]-piperidine (1:1) ethanedicarboxylate], for which the “ACT(ED50)” value in data set [1] was 0.3 mg/kg. Regarding `Cc1csc(C(=C2CCN(CCCC(=O)N3CCCC3)CC2)c2ccc(F)cc2)c1.Cl.Cl` [Compound 2m, 1-[4-[4-[(4-fluorophenyl)(4-methylthien-2-yl)methylene]piperidin-1-yl]-1-oxobutyl]-pyrrolidine.dihydrochloride], the “ACT(ED50)” value in data set [1] worked out at 0.14 mg/kg. The “CATR (ED50)” value in data set [3] is listed as over 7 mg/kg. In turn, `Cc1csc(C(=C2CCN(CCCNC(=O)c3ccccc3)CC2)c2ccc(F)cc2)c1.Cl` came in with a melting point of 95 to 97 °C.
